Reference: US20250170098A1, “MOLECULAR JACKHAMMER FOR MECHANICAL DESTRUCTION OF CELLULAR STRUCTURE” (William Marsh Rice University, priority 2022, published 2025)

What was measured:
[1] = test system: A375 cells; experiment: Clonogenic assay; format: cell-based, human; details: Homo sapiens, A-375, read-out: lethal concentration to kill the cell population by 50% (VDA IC50)
Procedure: The clonogenic assay was conducted to confirm that cancer cells treated by plasmon-driven MJH are indeed death upon NIR-light activation (FIG. 18). Three molecules were analyzed: the most VDA active BL-204, medium active BL-141-2 and low active Cy7-amine. […] This was accomplished by incubating the MJH molecules with the A375 cells for 50 min and immediately activate the plasmon-driven MJH using 730 nm NIR-light at 80 mW/cm^2 for 10 min. This is considered a short contact time between the MJH and the A375 cells.
Clonogenic assay. A375 cells were seeded in 35 mm cell culture dishes at predetermined densities to allow for an approximately equal number of resultant colonies. The next day, cells were treated with Cy7.5-amine at variable concentration and with or without 730 nm light at 80 mWcm^−2 for 10 min. The cells were incubated with Cy7.5-amine for 50 min before the illumination, the media was replaced with fresh media after the illumination and cells were cultured for 6 days to allow for colony formation. Cells were then washed once with PBS and fixed-stained in a 0.5% (w/v) crystal violet in methanol/water solution (1:1) during 10 min. The excess of crystal violet was washed off with water, the plates were dried at room temperature and then the colonies were counted using ImageJ software version 1.52a, and the survival fraction was determined. All treatments were in triplicate.

[2] = test system: human melanoma A375 cells; experiment: Cell permeabilization to DAPI, flow cytometry analysis; format: cell-based; details: for IC50: Homo sapiens, A-375, 10 min, 730 nm LED light at 80 mW/cm^2 for 10 min, DAPI positive cells, read-out: VDA IC50 (effective concentration needed to permeabilize cells by 50%); for permeabilization of the cells to DAPI: 730 nm light at 80 mW/cm^2 for 10 min
Procedure: The activity of plasmon-driven MJHs to open cell membranes by VDA upon NIR light-activation was evaluated in human melanoma A375 cells. When the cell membranes were open by VDA, DAPI enters immediately into the cells and stain the nucleus, and flow cytometry analysis was used to quantify the percentage of DAPI positive cells at variable concentrations of MJH. The flow cytometry analysis is conducted immediately after the cells were treated with 730 nm LED light at 80 mW/cm^2 for 10 min. Typically, it took ˜30 s to start cell counting and observe that DAPI already had entered into the cell membrane-compromised cells but not in the controls without VDA action. This is indicative of a rapid necrotic cell death and cell membrane permeabilization to DAPI by VDA action. The effective concentration needed to permeabilize cells by 50% (VDA IC50) was estimated for each molecule.
The flow cytometry data was analyzed using FlowJo software version 10.5.3. Then, a wide polygonal gate was drawn as shown in FIG. 33A since we were interested in detecting any cell death after treatment, we were not only interested in measuring healthy cell populations. Sometimes, we observed that the death cell population upon treatment shifted outside the gate if a narrow gate was used. Then, the singlets were selected and the DAPI fluorescence intensity was plotted versus the SSC-A and the gate for DAPI positive cells was drawn as shown in FIG. 33C and the analysis was applied to all samples in the group. In FIG. 33D, a DAPI positive population is observed in the same analysis group. This analysis was applied to calculate the percentage of DAPI positive cells.
Cell Permeabilization and flow cytometry analysis. A375 cells were cultured as described before. One day before the treatment, cells were inoculated at 5 million cells per dish (10 cm polystyrene tissue culture dish). The cells were harvested using 0.05% trypsin-EDTA (Gibco, 25-300-054), then the cells were counted and were adjusted to a cell density of 2×10^5 cells/mL in DMEM media with L-glutamine, 4.5 g/L glucose, and sodium pyruvate (Corning Inc. 10013CV) and supplemented with 10% FBS (Corning, 35010CV), 2×MEM vitamin solution (Gibco, 11120052), 1×MEM non-essential amino acid solution (Gibco, 11140050) and penicillin/streptomycin. 1 mL of this cell suspension containing 2×10^5 cells was used in each treatment. In a 1.5 mL Eppendorf tube, […] containing 2 mM Cy7.5-amine (or other cyanine molecule or other concentration) in DMSO (Fisher, 99.7%) was placed in the bottom of the tube, then 1 mL of the cell suspension was added into the tube to get final concentration of 2 μM of Cy7.5-amine containing 0.1% DMSO and 2×10^5 cells. The mixture was then incubated at 37° C. and 5% CO2 for 30 min. Then, 1 mM DAPI was added into the cell suspension. Then, the cells suspension was transferred to a […] tissue culture dish and immediately the cells were treated under the light beam of NIR light of 730 nm at 80 mW/cm^2 (or adjusted powers down to 20 mW/cm^2) for 10 min (or adjusted illumination times down to 30 s) using LED light source (PRIZMATIX, UHP-F-730, Israel) which covered the entire dish. While the cells were treated, the dish was placed on top of an aluminum block painted black, so that the excess NR light and that was not reflected back into the cell suspension while the aluminum block actED as a heat-sink, maintaining a constant temperature in the dish during the irradiation. The instrument for flow cytometry analysis (SONY, MA900 Multi-Application Cell Sorter) was already set up and calibrated by the time the light treatment was finished. Therefore, as soon as the 10-min light treatment was completed, the cell suspension was rapidly transferred from the 35 mm dish to a flow cytometry tube and the cells were analyzed for DAPI permeabilization and Cy7.5-amine binding. It took ˜30 s to load the sample and to start the analysis. […]

Row | Structure (SMILES) | IC50 [1] | IC50 [2] | also measured
1 | CN(C)CC[N+]1=C(/C=C/C2=CC(=C/C=C3/N(C)c4ccc5ccccc5c4C3(C)C)/CCC2)C(C)(C)c2c1ccc1ccccc21 [BL-204, 3-(2-(dimethylamino)ethyl)-1,1-dimethyl-2-((E)-2-((E)-3-((E)-2-(1,1,3-trimethyl-1,3-dihydro-2H-benzo[e]indol-2-ylidene)ethylidene)cyclohex-1-en-1-yl)vinyl)-1H-benzo[e]indol-3-ium] | 45 nM | 0.12 µM | 
2 | CN1/C(=C/C=C2C=C(/C=C/c3ccc4ccccc4[n+]3C)CCC/2)C=Cc2ccccc21 [BL-206] |  | > 8 µM | 
3 | CN(C)CCCCCC[N+]1=C(/C=C/C2=CC(=C/C=C3/N(C)c4ccc5ccccc5c4C3(C)C)/CCC2)C(C)(C)c2c1ccc1ccccc21 [BL-141-2, 3-(6-(dimethylamino)hexyl)-1,1-dimethyl-2-((E)-2-((E)-3-((E)-2-(1,1,3-trimethyl-1,3-dihydro-2H-benzo[e]indol-2-ylidene)ethylidene)cyclohex-1-en-1-yl)vinyl)-1H-benzo[e]indol-3-ium] | 65 nM |  | 
4 | CC1(C)C(/C=C/C=C/C=C/C=C2\N(CCCCS(=O)(=O)O)c3ccc4ccccc4c3C2(C)C)=[N+](CCCCS(=O)(=O)[O-])c2ccc3ccccc3c21 [ICG, indocynine green] |  | > 8 µM | permeabilization of the cells to DAPI ([2]; 32 μM): 2%; permeabilization of the cells to DAPI ([2]; 400 μM): 14%
5 | CN1/C(=C\C=C2C=C(/C=C/C3=[N+](CCCCCC(=O)NCCCCCCN)c4ccccc4C3(C)C)CCC\2)C(C)(C)c2ccccc21 [Cy7-amine] | 175 nM |  | permeabilization to DAPI staining, percentage of cells ([2]; 1 μM, 730 nm LED at 80 mW/cm^2 for 10 min): 0.8%; effect of 680 nm excitation on opening cell membranes ([2]; 680 nm LED, 80 mWcm^−2 for 10 min): improves the MJH effect for opening cell membranes
